As usually defined, the melting point is the temperature, or range, at which the solid turns liquid. Consider `CCCOc1ccc(C)c2c(=O)c(-c3cccs3)c[nH]c12` [Example 61, 5-Methyl-8-propoxy-3-thiophen-2-yl-1H-quinolin-4-one], for which the melting point was 104 to 105 °C. The same measure for `COc1ccc(-c2c[nH]c3c(N4CCOCC4)ccc(C)c3c2=O)cc1` [Example 73, 3-(4-Methoxyphenyl)-5-methyl-8-morpholin-4-yl-1H-quinolin-4-one]: 260 to 263 °C; for `CCCOc1cccc2c(=O)c(-c3ccccc3OC)c[nH]c12` [Example 39, 3-(2-Methoxyphenyl)-8-propoxy-1H-quinolin-4-one]: 218 to 220 °C.

As for `CCOc1ccc(OC)c2c(=O)c(-c3ccc(OC)cc3)c[nH]c12` [Example 45, 8-Ethoxy-5-methoxy-3-(4-methoxyphenyl)-1H-quinolin-4-one], the melting point fell in the range of 117 to 119 °C.

The compound `COc1ccc(-c2c[nH]c3c(N4CCN(C)CC4)ccc(C)c3c2=O)cc1` [Example 77, 3-(4-Methoxyphenyl)-5-methyl-8-(4-methylpiperazin-1-yl)-1H-quinolin-4-one] came in with a melting point of 214 to 215 °C.

In the case of `COc1ccc(-c2c[nH]c3c(OC(C)C)ccc(OC)c3c2=O)cc1` [Example 46, 8-Isopropoxy-5-methoxy-3-(4-methoxyphenyl)-1H-quinolin-4-one], the melting point lay within 213 to 214 °C.

The compound `COc1ccc(-c2c[nH]c3c(OCC(C)C)ccc(OC)c3c2=O)cc1` [Example 47, 8-Isobutoxy-5-methoxy-3-(4-methoxyphenyl)-1H-quinolin-4-one] returned a melting point of 242 to 244 °C. The value for `CCCOc1ccc(C)c2c(=O)c(-c3ccc(OC)cc3)cn(CC3CC3)c12` [Example 92, 1-Cyclopropylmethyl-3-(4-methoxyphenyl)-5-methyl-8-propoxy-1H-quinolin-4-one] was 100 to 101 °C.

Turning to `CCCOc1cccc2c(=O)c(-c3ccc(F)cc3Cl)c[nH]c12` [Example 29, 3-(2-Chloro-4-fluorophenyl)-8-propoxy-1H-quinolin-4-one], the melting point amounted to 230 °C. The same measure for `COc1ccc(-c2c[nH]c3c(OCC4CC4)ccc(OC)c3c2=O)cc1` [Example 88, 8-Cyclopropylmethoxy-5-methoxy-3-(4-methoxyphenyl)-1H-quinolin-4-one]: 212 to 214 °C; for `COc1ccc(-c2c[nH]c3c(N(C)C4CCCCC4)ccc(C)c3c2=O)cc1` [Example 99, 8-(N-Cyclohexyl-N-methylamino)-3-(4-methoxyphenyl)-5-methyl-1H-quinolin-4-one]: 186 to 187 °C; for `CCOc1ccc(OCC)c2c(=O)c(-c3ccc(F)cc3)c[nH]c12` [Example 94, 5,8-Diethoxy-3-(4-fluorophenyl)-1H-quinolin-4-one]: 232 to 234 °C. The same measure for `CCCOc1ccc(OC)c2c(=O)c(-c3ccccc3OC)c[nH]c12` [Example 40, 5-Methoxy-3-(2-methoxyphenyl)-8-propoxy-1H-quinolin-4-one]: 239 to 241 °C; for `CCCOc1cccc2c(=O)c(-c3cccc(Br)c3)c[nH]c12` [Example 55, 3-(3-Bromophenyl)-8-propoxy-1H-quinolin-4-one]: 107 to 108 °C.

As to `COc1ccc(-c2c[nH]c3c(OC4CCCC4)ccc(OC)c3c2=O)cc1` [Example 93, 8-Cyclopentyloxy-5-methoxy-3-(4-methoxyphenyl)-1H-quinolin-4-one], the melting point was 213 to 215 °C. The same measure for `CCCOc1c(F)ccc2c(=O)c(-c3ccc(OC)cc3)c[nH]c12` [Example 48, 7-Fluoro-3-(4-methoxyphenyl)-8-propoxy-1H-quinolin-4-one]: 160 to 161 °C; for `CCCOc1cccc2c(=O)c(-c3cccc(OC)c3OC)c[nH]c12` [Example 41, 3-(2,3-Dimethoxyphenyl)-8-propoxy-1H-quinolin-4-one]: 253 to 255 °C; for `CCCOc1cccc2c(=O)c(-c3ccc(OC)cc3OC)c[nH]c12` [Example 16, 3-(2,4-Dimethoxyphenyl)-8-propoxy-1H-quinolin-4-one]: 231 to 232 °C.

The values are drawn from patent US20130217678A1, “PHARMACEUTICAL AGENT COMPRISING QUINOLONE COMPOUND” (OTSUKA PHARMACEUTICAL CO., LTD., priority 2008, published 2013).
